Reference: patent US9067923B2, “Substituted quinoxalines” (Kyowa Hakko Kirin Co., Ltd., priority 2011, dated 2015)

Tests used:
[1] = system: production of kynurenine in human gastric cancer cell line KATO-III; assay: Inhibitory activity on the production of kynurenine (IFN-γ-treated KATO-III cells); type: cell-based; settings: 10 μmol/L test compound, KATO-III cells treated with IFN-γ, 96 hours
Procedure: This assay was performed by a modification of the method described in J. Biol. Chem., vol. 263, pp. 2041-2048 ([…]). For culture of the human gastric cancer cell line […], RPMI 1640 (GIBCO, 11875) supplemented with 10 vol % FBS (GIBCO, 10091-148, lot. 665285) was used. One μL of a test substance in a DMSO solution was diluted with 199 μL of the culture medium and placed in wells of a 384-well plate (10 μL/well). Next, IFN-γ (Sigma, I-3265) was added to a fresh culture medium to a concentration of 31.25 ng/mL, and KATO-III cells were suspended at 50,000 cells/mL in the culture medium. Forty μL of the suspension was added to each well (2,000 cells/well) and cultured under 5% CO2 at 37° C. for 96 hours. The final concentration of DMSO was limited to 0.1 vol % or less so that DMSO itself may not affect the kynurenine concentration measured in this assay. After the culture, 10 μL of a 30 w/v % aqueous trichloroacetic acid solution was added to each well, and incubation was performed at 65° C. for 30 minutes. The plate was centrifruged at 2,500×g for 5 minutes and 15 μL of the supernatant in each well was transferred into another 384-well plate. To the transferred supernatant, 15 μL of a 2 w/v % solution of p-dimethylaminobenzaldehyde in acetic acid was added, incubation was performed at 65° C. for 20 minutes and the absorbance was measured at 480 nm.
Sample: the absorbance value of the well to which DMSO solution containing a test substance was added and in which the cells were treated with IFN-γ.
Blank: the absorbance value of the well to which DMSO not containing a test substance was added and in which the cells were treated with IFN-γ.
Control: the absorbance value of the well to which DMSO not containing a test substance was added and in which the cells were not treated with IFN-γ.
The inhibition % of each test compound was calculated by formula A1.
In this assay, the expression of IDO in KATO-III cells is induced by IFN-γ treatment, and kynurenine in the culture medium is quantified. The kynurenine concentration in a culture medium is known to increase in proportion to the enzymatic activity of intracellular IDO (for example, J. Biol. Chem., vol. 263, pp. 2041-2048 (1988)). […] The production of kynurenine is known to be inhibited by IDO inhibitors (for example, J. Clin. Invest., vol. 117, No. 5, pp. 1147-1154 ([…])), and thus it is speculated that compounds (I) also have an inhibitory effect on IDO.

CYP3A4 = assay: Induction of CYP3A4 using HepaRG cells (midazolam metabolizing activity); type: in vitro ADME; settings: 1 μmol/L test compound, 72 hours, 1'-hydroxymidazolam formation relative to DMSO negative control
Procedure: CYP3A4-inducing activity was evaluated using HepaRG cells (Biopredic international). HepaRG cells were suspended in a medium at a concentration of 0.72×10^6 cells/mL and added in a volume of 100 μL to each well of a 96-well collagen coated plate (Biopredic international). The medium used for seeding HepaRG cells was HepaRG Thawing and Seeding Medium 670 (Biopredic international) and the medium used during treatment with a test compound was HepaRG Serum-free Induction Medium 650 (Biopredic international). Three days after the seeding of HepaRG cells, treatment with a test compound was started. After 200 μL of HepaRG Serum-free Induction Medium 650 was added to each well of the 96-well, collagen plate, a test compound dissolved in dimethylsulfoxide (DMSO) was added in a volume of 0.5 μL to each well so that the final concentration was 1 μmol/L. The well to which only DMSO was added was used as a negative control. The medium in the wells containing the test compound was replaced every 24 hours and the treatment with the test compound was continued for 72 hours. The fourth day after the start of the treatment with the test compound, midazolam, which is a typical substrate for CYP3A4, was added and CYP3A4-inducing activity was evaluated by measuring changes in the metabolic activity. The medium was removed by suction and each well was washed twice with PBS (150 μL/well) warmed to 37° C. HepaRG Serum-free Induction Medium 650 containing 20 μmol/L midazolam was warmed to 37° C. and added in a volume of 100 μL to each well. The plate was incubated in a CO2 incubator for 2 hours. At the end of the reaction, 70 μL of the reaction medium was recovered from each well and mixed with 70 μL of a methanol solution containing an internal standard (propranolol, 2 μmol/L). The mixture was centrifuged (at 5000×g at 4° C. for 10 minutes) and the supernatant was used as an analysis sample. The midazolam metabolizing activity was evaluated by measuring the amount of a produced metabolite by CYP3A4, 1′-hydroxymidazolam, by means of a liquid chromatograph-tandem mass spectrometry (LC-MS/MS). Agilent 1100 series (Agilent technologies) was used as the LC device, API2000 (AB sciex) was used as the MSMS device, and HTC PAL (CTC analytics) was used as the autosampler. CAPCELL PAK C18 ACR column (3 μm, 3 mm (I. D.)×35 mm, purchased from Shiseido Co., Ltd.) was used as the analytical column. The mobile phase A was 10 mmol/L aqueous ammonium acetate solution and the mobile phase B was methanol. The gradient conditions were 0 min (B=30%), 0.2 min (B=30%), 2.2 min (B=95%), 4 min (B=95%), 4.01 min (B=30%), 5 min (B=30%). The flow rate was 0.6 mL/min and the sample injection volume was 30 μL. The ions were detected by atmospheric pressure ionization mode using the MSMS device. The detection was performed by multiple reaction monitoring and the 1′-hydroxy midazolam ions were detected at m/z (precursor ion>product ion)=342.1>168.2.
The fold induction by each test compound was determined by using formula A2 below, which is for calculating the fold induction as the ratio of the metabolic activity in the test compound-treatment group to that of the negative control group (DMSO-treatment group).

Structure (SMILES) | inhibition at 10 µM [1] [%] | Fold induction (CYP3A4)
CCCS(=O)(=O)Nc1nc2ccccc2nc1OC(c1ccc(-c2noc(C3CC3)n2)nc1)C(F)(F)F (stereo not shown) [Compound 25, N-(3-(1-(6-(5-cyclopropyl-1,2,4-oxadiazol-3-yl)pyridin-3-yl)-2,2,2-trifluoroethoxy)quinoxalin-2-yl)propane-1-sulfonamide] | ≥ 80 | 1.41
COCCS(=O)(=O)Nc1nc2ccccc2nc1OC(c1ccc(-c2noc(C)n2)nc1)C(F)(F)F (stereo not shown) [Compound 27, 2-methoxy-N-(3-(2,2,2-trifluoro-1-(6-(5-methyl-1,2,4-oxadiazol-3-yl)pyridin-3-yl)ethoxy)quinoxalin-2-yl) ethanesulfonamide] |  | 1.21
CCCS(=O)(=O)Nc1nc2ccccc2nc1O[C@H](c1ccc(-c2noc(C)n2)nc1)C(F)(F)F [Compound 28, (R)-N-(3-(2,2,2-trifluoro-1-(6-(5-methyl-1,2,4-oxadiaxol-3-yl)pyridin-3-yl)ethoxy)quinoxalin-2-yl)propane-1-sulfonamide] |  | 1.27
COCCS(=O)(=O)Nc1nc2ccccc2nc1O[C@H](c1ccc(-c2cnco2)nc1)C(F)(F)F [Compound 30, (R)-2-methoxy-N-(3-(2,2,2-trifluoro-1-(6-(oxazol-5-yl)pyridin-3-yl)ethoxy)quinoxalin-2-yl)ethanesulfonamide] | ≥ 80 | 1.12
COCCS(=O)(=O)Nc1nc2ccccc2nc1O[C@H](c1ccc(-c2noc(C3CC3)n2)nc1)C(F)(F)F [Compound 37, (R)-N-(3-(1-(6-(5-cyclopropyl-1,2,4-oxadiasol-3-yl)pyridin-3-yl)-2,2,2-trifluoroethoxy)quinoxalin-2-yl)-2-methoxyethanesulfonamide] |  | 1.33
